# Experimental data reported in patent publication US10711000B2 (Fronthera U.S. Pharmaceuticals LLC, priority 2018, dated 2020).
# What was measured:
# [1] = Metabolic stability in liver microsomes; format: in vitro ADME; settings: compound 1 μM; for metabolic stability (halftime in minutes), Dog: Beagle dog liver microsomes; for metabolic stability (halftime in minutes), Mouse: CD-1 mouse liver microsomes; for metabolic stability (halftime in minutes), Monkey: Cynomolgus monkey liver microsomes; for metabolic stability (halftime in minutes), Rat: SD rat liver microsomes
# Description: The metabolic stability was examined in human, rat, mouse, dog and cynomolgus monkey liver microsomes. Compound (1 μM) was mixed with diluted liver microsomes from each of the 5 species and a small aliquot was taken at 0, 5, 10, 20, 30 and 60 minutes for HPLC MS/MS analysis. Intrinsic clearance and half-life were calculated.
# [2] = Pharmacokinetics in beagle dogs; format: in vivo; settings: male, dog, plasma, iv, I.V. (1 mg/kg)
# [3] = Pharmacokinetics in beagle dogs; format: in vivo; settings: male, dog, plasma, po, P.O. (1 mg/kg)
# Excerpt: (§1) The pharmacokinetics and pharmacodynamics of test compounds after a single oral dose were investigated in SD rats, Beagle dog and Cynomolgus monkey. SD Rats (200-250 g) were purchased from Beijing Vital River Laboratory Animal Technology Co., Ltd. Male Beagle Dog, 6-9 kg, were purchased from Beijing Mashall. Male Cynomolgus monkeys, 3-5 kg, were purchased from Suzhou Xishan Zhongke Drugs Research and Development Co., Ltd. Following arrival, the animals were acclimated for 7 days in individual cages maintained at ambient temperature, 34 to 68% relative humidity, and 12-h light/dark cycles. Just prior to dose administration the rats were fasted overnight with free access to water. Animals were given 10 mL/kg of formulated compound in 0.5% methylcellulose (MC) by oral gavage, and the animals were fed four hours after dosing. The animals were manually restrained at the designated time points (pre-dose, 0.5, 1, 3, 6, 9, 12, and 24 h post-dose) to collect blood. Approximately 120 μL of blood was collected via orbital sinus into K2EDTA tubes. The blood samples were centrifuged at 5000 rpm for 10 min at 4° C. to obtain plasma samples.
# (§2) To determine the compound concentration in the plasma samples, a 10× calibration standard of compound were prepared by serial dilution in DMSO: 20000, 10000, 5000, 2000, 1000, 500, 200, 100, 50, 20, and 10 ng/mL. 3 μL of calibration standard solution was added into 27.0 μL of blank plasma in 1.5-mL microcentrifuge tubes to generate 1× calibration standards. The 30.0 μL of standards or study plasma was mixed with 200 μL of acetonitrile (containing 5 ng/mL verapamil for internal control) in a 1.5-mL microcentrifuge tube. After vertexing for 1 minute and centrifuging at 10000 rpm for 10 min, 180 μL of supernatant was transferred into a 96-well plate and the compound concentration in the plasma was quantitated using LC/MS/MS together with standards. Briefly, 1 μL of the solutions were injected for LC-MS/MS analysis using an Agilent Zorbax C18 column (50×2.1 mm, 3.5 μm) with mobile phase A [5 mM NH4Ac (0.1% FA)] and phase B [Methanol (0.1% FA)]. Mass spectrometer parameters optimization for compound was performed by infusing standard diluted at 1 μg/mL in water/methanol (1/1, v/v) directly in the ionization source at a flow of 10 μL/min. Quantitative data were acquired in multiple reaction monitoring (MRM) positive APCI mode.
# Autotaxin = biological target: T1, Autotaxin (Rattus norvegicus, UniProt Q64610); assay: Pharmacodynamics: LPA 18:2 inhibition in plasma of SD rats after oral dose; settings: single oral dose, LPA18:2 inhibition vs plasma concentration of compound, read-out: In vivo rat IC50 (LPA 18:2) (converted)
# T1 construct: from tissue; host or cells: SD rats in vivo; plasma sampled after a single oral dose
# Excerpt: as §1
# Autotaxin is a secreted phosphodiesterase that converts lysophosphatidylcholine (LPC) into lysophosphatidic acid (LPA), and LPA 18:2 formation was used to evaluate the efficacy of autotaxin inhibitors. Therefore, the LPA 18:2 formation in response to drug administration was analyzed in each time point to assess the pharmacodynamics of test compounds. To determine the LPA18:2 concentration in study plasma, a 10× calibration standard of LPA 18:2 were prepared by serial dilution in butyl alcohol: 20000, 10000, 5000, 2000, 1000, 500, 200, 100, 50, 20, and 10 ng/mL. 3 μL of calibration standard solution was added into 27.0 μL of blank plasma in 1.5-mL microcentrifuge tubes to generate 1× calibration standards. The 30.0 μL of standards or study plasma was added into 1.5-mL microcentrifuge tubes. 200 μL of butyl alcohol (containing 25.0 ng/mL LPA17:0 for internal control) was added into each 1.5-mL microcentrifuge tube containing study plasma or calibration standards. After vortexing for 1 minute and centrifuging at 10000 rpm for 10 min, 180 μL of supernatant was transferred into a 96-well plate and the LPA18:2 concentration in the plasma was quantitated using LC/MS/MS together with standards. Briefly, 8 μL of the solutions were injected for LC-MS/MS analysis using an ACQUITY UPLC BEH C18 column (2.1×50 mm, 1.7 μm) with mobile phase A [20 mM NH4OAC in water (0.1% FA)] and phase B [5 mM NH4OAC in water/0.2% FA in ACN=5:95]. Mass spectrometer parameters optimization for LPA18:2 were performed by infusing standard diluted at 1 μg/mL in butyl Alcohol directly in the ionization source, at a flow of 10 μL/min. Deprotonated molecular ion at m/z 433.2 ([M−H]−) for LPA18:2, and abundant product ion at m/z 152.8 for LPA18:2 were obtained. Quantitative data were acquired in multiple reaction monitoring (MRM) negative electrospray ionization mode
# The percentage of LPA18:2 inhibition was plotted against the corresponding concentration of compound and the IC50 was calculated through non-linear regression fitting.
# CYP 2C19 = biological target: T2, CYP 2C19 (Homo sapiens, UniProt P33261); assay: CYP inhibition in human liver microsome; format: in vitro ADME; settings: human liver microsomes, substrate s-mephenytoin (30 μM); compounds diluted 1:3 starting at 50 μM; read-out: IC50 in CYP isozyme 2C19
# T2 construct: from tissue; host or cells: human liver microsomes
# Description: Test compounds were evaluated for CYP inhibition using human liver microsomes (HLM). Test compounds were 1:3 serially diluted starting at 50 μM to generate 7 different concentrations. After incubation of diluted test compounds with HLM, a substrate cocktail composed of phenacetin (10 μM), amodiaquine (2 μM), diclofenac (5 μM), s-mephenytoin (30 μM), dextromethorphan (5 μM), and midazolam (2 μM) was added to check the remaining CYP activity for CYP 1A2, 2C8, 2C9, 2C19, 2D6 and 3A4. The CYP activity was measured by detecting the peak area of individual metabolites of know CYP substrates using LC/MS/MS. A percentage of inhibition of CYP was calculated at each final concentration of test compound, through which an IC50 was fitted to represent the inhibition potential.
# [4] = Pharmacokinetics in cynomolgus monkeys; format: in vivo; settings: male, cynomolgus monkey, plasma, po, P.O. (1 mg/kg)
# Excerpt: as §1, §2
# T2 sequence (P33261 whole entry): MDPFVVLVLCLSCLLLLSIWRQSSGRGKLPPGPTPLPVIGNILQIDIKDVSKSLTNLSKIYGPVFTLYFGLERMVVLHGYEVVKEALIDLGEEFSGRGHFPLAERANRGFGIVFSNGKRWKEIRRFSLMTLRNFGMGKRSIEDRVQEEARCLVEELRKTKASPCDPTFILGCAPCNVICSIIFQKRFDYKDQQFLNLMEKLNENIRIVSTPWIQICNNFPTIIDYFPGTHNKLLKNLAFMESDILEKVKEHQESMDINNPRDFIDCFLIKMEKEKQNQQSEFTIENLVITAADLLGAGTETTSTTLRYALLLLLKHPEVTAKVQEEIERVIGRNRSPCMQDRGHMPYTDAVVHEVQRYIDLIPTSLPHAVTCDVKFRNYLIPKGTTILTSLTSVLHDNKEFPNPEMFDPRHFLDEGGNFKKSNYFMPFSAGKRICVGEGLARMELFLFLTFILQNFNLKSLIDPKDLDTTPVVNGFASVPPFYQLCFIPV
compound,measurement,setting,value
"CCc1nn2cc(F)c(N3CC4(CN(C(=O)[C@H]5CCOC5)C4)C3)cc2c1N(C)c1nc(-c2ccc(F)cc2)c(C#N)s1 [Example 102, 2-[[2-ethyl-6-fluoro-5-[2-[(3S)-tetrahydrofuran-3-carbonyl]-2,6-diazaspiro[3.3]heptan-6-yl]pyrazolo[1,5-a]pyridin-3-yl]-methyl-amino]-4-(4-fluorophenyl)thiazole-5-carbonitrile]","metabolic stability (halftime in minutes), Dog",[1],69.8 min
same,"metabolic stability (halftime in minutes), Mouse",[1],17.9 min
same,"metabolic stability (halftime in minutes), Monkey",[1],6.4 min
same,"metabolic stability (halftime in minutes), Rat",[1],67.3 min
same,"metabolic stability (halftime in minutes), Human",[1],13.4 min
same,AUC,[2],6480 ± 703 ng·h/mL
same,C0,[2],1070 ± 34.4 ng/mL
same,clearance,[2],1.85 ± 0.28 mL/min/kg
same,half-life,[2],14.8 ± 0.57 h
same,AUC,[3],2190 ± 325 ng·h/mL
same,Cmax,[3],192 ± 26 ng/mL
same,bioavailability,[3],33.9 ± 5%
same,half-life,[3],20.4 ± 6.1 h
same,IC50,Autotaxin,8.85 nM
same,IC50,CYP 2C19,11900 nM
CCc1nc2c(C)cc(N3CCN(CC(=O)N4CC(O)C4)CC3)cn2c1N(C)c1nc(-c2ccc(F)cc2)c(C#N)s1 [GLPG1690],"metabolic stability (halftime in minutes), Dog",[1],32.1 min
same,"metabolic stability (halftime in minutes), Mouse",[1],10.3 min
same,"metabolic stability (halftime in minutes), Monkey",[1],4.8 min
same,"metabolic stability (halftime in minutes), Rat",[1],9.2 min
same,"metabolic stability (halftime in minutes), Human",[1],10.8 min
same,AUC,[2],8650 ± 328 ng·h/mL
same,C0,[2],5120 ± 1380 ng/mL
same,clearance,[2],1.91 ± 0.07 mL/min/kg
same,half-life,[2],2.11 ± 1.23 h
same,AUC,[3],5760 ± 672 ng·h/mL
same,Cmax,[3],1130 ± 229 ng/mL
same,bioavailability,[3],66.2 ± 7.5%
same,half-life,[3],3.04 ± 0.77 h
same,IC50,Autotaxin,48.3 nM
same,AUC,[4],244 ± 118 ng·h/mL
same,Cmax,[4],72.6 ± 38 ng/mL
same,bioavailability,[4],4.51 ± 2.1%
same,half-life,[4],1.82 ± 0.63 h
same,IC50,CYP 2C19,40200 nM
"CCn1nc2ncc(N3CC4(CN(C(=O)C5CCOCC5)C4)C3)cc2c1N(C)c1nc(-c2ccc(F)cc2)c(C#N)s1 [Compound 118, 2-((2-ethyl-5-(6-(tetrahydro-2H-pyran-4-carbonyl)-2,6-diazaspiro[3.3]heptan-2-yl)-2H-pyrazolo[3,4-b]pyridin-3-yl)(methyl)amino)-4-(4-fluorophenyl)thiazole-5-carbonitrile]","metabolic stability (halftime in minutes), Dog",[1],>145 min
same,"metabolic stability (halftime in minutes), Mouse",[1],58.5 min
same,"metabolic stability (halftime in minutes), Monkey",[1],21.3 min
same,"metabolic stability (halftime in minutes), Rat",[1],>145 min
same,"metabolic stability (halftime in minutes), Human",[1],75.4 min
same,AUC,[2],2190 ± 378 ng·h/mL
same,C0,[2],786 ± 62 ng/mL
same,clearance,[2],7.68 ± 1.2 mL/min/kg
same,half-life,[2],3.35 ± 0.6 h
same,AUC,[3],900 ± 305 ng·h/mL
same,Cmax,[3],165 ± 40 ng/mL
same,bioavailability,[3],40.7 ± 14%
same,half-life,[3],3.99 ± 0.89 h
same,IC50,Autotaxin,12.5 nM
same,AUC,[4],153 ± 10 ng·h/mL
same,Cmax,[4],28 ± 3 ng/mL
same,bioavailability,[4],2.9 ± 0.19%
same,half-life,[4],2.63 ± 0.85 h
same,IC50,CYP 2C19,> 50000 nM
"CCc1nn2cc(F)c(N3CCN(CC(=O)N4CC(O)C4)CC3)cc2c1N(C)c1nc(-c2ccc(F)cc2)c(C#N)s1 [Example 101, 2-[[2-ethyl-6-fluoro-5-[4-[2-(3-hydroxyazetidin-1-yl)-2-oxo-ethyl]piperazin-1-yl]pyrazolo[1,5-a]pyridin-3-yl]-methyl-amino]-4-(4-fluorophenyl)thiazole-5-carbonitrile]","metabolic stability (halftime in minutes), Dog",[1],71.9 min
same,"metabolic stability (halftime in minutes), Mouse",[1],14.0 min
same,"metabolic stability (halftime in minutes), Monkey",[1],9.8 min
same,"metabolic stability (halftime in minutes), Rat",[1],96.6 min
same,"metabolic stability (halftime in minutes), Human",[1],24.5 min
same,AUC,[2],10700 ± 1810 ng·h/mL
same,C0,[2],2290 ± 172 ng/mL
same,clearance,[2],1.53 ± 0.27 mL/min/kg
same,half-life,[2],5.06 ± 0.85 h
same,AUC,[3],4020 ± 549 ng·h/mL
same,Cmax,[3],425 ± 68 ng/mL
same,bioavailability,[3],36.1 ± 4.9%
same,half-life,[3],4.69 ± 0.17 h
same,IC50,Autotaxin,8.64 nM
same,AUC,[4],1380 ± 904 ng·h/mL
same,Cmax,[4],239 ± 119 ng/mL
same,bioavailability,[4],35.6 ± 22%
same,half-life,[4],2.49 ± 0.54 h
same,IC50,CYP 2C19,45500 nM
